According to the supplement of paper PMC10307832:

Experiments:
Assay in all cases: relative viability (nuclei count vs DMSO), 5 days (fraction); higher = more cells survive
17-AAG = compound: C=CCNC1=C2C[C@@H](C)C[C@H](OC)[C@H](O)[C@@H](C)/C=C(\C)[C@H](OC(N)=O)[C@@H](OC)/C=C\C=C(/C)C(=O)NC(=CC1=O)C2=O [17-AAG]
Summary of the method: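 Lung cancer cell lines in 1536-well plates were kept overnight at 37 °C, then pinned with five library-drug doses (not always all listed) spaced by √10 on vehicle-anchored plates. After 5 days without medium change, cells were fixed, permeabilised and Hoechst-stained in one step, imaged at 4×, and nuclei were counted with MetaXpress. Viability is treated-well nuclei divided by vehicle-well nuclei, taken as the median over plates. Plates passed only with control CV below 25% and at least one doubling.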

17-AAG + Tozasertib = compound: C=CCNC1=C2C[C@@H](C)C[C@H](OC)[C@H](O)[C@@H](C)/C=C(\C)[C@H](OC(N)=O)[C@@H](OC)/C=C\C=C(/C)C(=O)NC(=CC1=O)C2=O [17-AAG] + Cc1cc(Nc2cc(N3CCN(C)CC3)nc(Sc3ccc(NC(=O)C4CC4)cc3)n2)n[nH]1 [Tozasertib] (partner 0.1 µM)
Summary of the method: (§1)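 Medians of duplicate plates are given as relative viability. That measure is the nuclei count in treated wells divided by the count in vehicle wells. Counts were taken on 4× images of lung cancer cell lines in 1536-well plates, 5 days after pin-tool dosing the day after seeding with one drug alone or a fixed anchor-drug dose plus five library-drug doses (not always all listed) in √10 steps.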

17-AAG + Foretinib = compound: C=CCNC1=C2C[C@@H](C)C[C@H](OC)[C@H](O)[C@@H](C)/C=C(\C)[C@H](OC(N)=O)[C@@H](OC)/C=C\C=C(/C)C(=O)NC(=CC1=O)C2=O [17-AAG] + COc1cc2c(Oc3ccc(NC(=O)C4(C(=O)Nc5ccc(F)cc5)CC4)cc3F)ccnc2cc1OCCCN1CCOCC1 [Foretinib] (partner 0.25 µM)
Summary of the method: as §1

17-AAG + Dasatinib = compound: C=CCNC1=C2C[C@@H](C)C[C@H](OC)[C@H](O)[C@@H](C)/C=C(\C)[C@H](OC(N)=O)[C@@H](OC)/C=C\C=C(/C)C(=O)NC(=CC1=O)C2=O [17-AAG] + Cc1nc(Nc2ncc(C(=O)Nc3c(C)cccc3Cl)s2)cc(N2CCN(CCO)CC2)n1 [Dasatinib] (partner 0.075 µM)
Summary of the method: as §1

17-AAG + Luminespib = compound: C=CCNC1=C2C[C@@H](C)C[C@H](OC)[C@H](O)[C@@H](C)/C=C(\C)[C@H](OC(N)=O)[C@@H](OC)/C=C\C=C(/C)C(=O)NC(=CC1=O)C2=O [17-AAG] + CCNC(=O)c1noc(-c2cc(C(C)C)c(O)cc2O)c1-c1ccc(CN2CCOCC2)cc1 [Luminespib] (partner 0.01 µM)
Summary of the method: as §1

17-AAG + OSI-027 = compound: C=CCNC1=C2C[C@@H](C)C[C@H](OC)[C@H](O)[C@@H](C)/C=C(\C)[C@H](OC(N)=O)[C@@H](OC)/C=C\C=C(/C)C(=O)NC(=CC1=O)C2=O [17-AAG] + COc1cccc2cc(-c3nc([C@H]4CC[C@H](C(=O)O)CC4)n4ncnc(N)c34)[nH]c12 [OSI-027] (partner 0.5 µM)
Summary of the method: as §1

17-AAG + Phenformin = compound: C=CCNC1=C2C[C@@H](C)C[C@H](OC)[C@H](O)[C@@H](C)/C=C(\C)[C@H](OC(N)=O)[C@@H](OC)/C=C\C=C(/C)C(=O)NC(=CC1=O)C2=O [17-AAG] + N=C(N)NC(=N)NCCc1ccccc1 [Phenformin] (partner 250 µM)
Summary of the method: as §1

Cell Line: NCI-H1623
- relative viability (17-AAG; 0.00128 µM): 0.978
- relative viability (17-AAG; 0.004048 µM): 0.919
- relative viability (17-AAG; 0.0128 µM): 0.755
- relative viability (17-AAG; 0.04048 µM): 0.31
- relative viability (17-AAG; 0.128 µM): 0.383
- relative viability (17-AAG + Tozasertib; first compound 0.00128 µM): 0.412
- relative viability (17-AAG + Tozasertib; first compound 0.004048 µM): 0.401
- relative viability (17-AAG + Tozasertib; first compound 0.0128 µM): 0.497
- relative viability (17-AAG + Tozasertib; first compound 0.04048 µM): 0.261
- relative viability (17-AAG + Tozasertib; first compound 0.128 µM): 0.31
- relative viability (17-AAG + Foretinib; first compound 0.00128 µM): 0.87
- relative viability (17-AAG + Foretinib; first compound 0.004048 µM): 0.695
- relative viability (17-AAG + Foretinib; first compound 0.0128 µM): 0.491
- relative viability (17-AAG + Foretinib; first compound 0.04048 µM): 0.304
- relative viability (17-AAG + Foretinib; first compound 0.128 µM): 0.336
- relative viability (17-AAG + Dasatinib; first compound 0.00128 µM): 0.625
- relative viability (17-AAG + Dasatinib; first compound 0.004048 µM): 0.351
- relative viability (17-AAG + Dasatinib; first compound 0.0128 µM): 0.284
- relative viability (17-AAG + Dasatinib; first compound 0.04048 µM): 0.265
- relative viability (17-AAG + Dasatinib; first compound 0.128 µM): 0.284
- relative viability (17-AAG + Luminespib; first compound 0.00128 µM): 0.555
- relative viability (17-AAG + Luminespib; first compound 0.004048 µM): 0.369
- relative viability (17-AAG + Luminespib; first compound 0.0128 µM): 0.283
- relative viability (17-AAG + Luminespib; first compound 0.04048 µM): 0.273
- relative viability (17-AAG + Luminespib; first compound 0.128 µM): 0.267
- relative viability (17-AAG + OSI-027; first compound 0.00128 µM): 0.475
- relative viability (17-AAG + OSI-027; first compound 0.004048 µM): 0.463
- relative viability (17-AAG + OSI-027; first compound 0.0128 µM): 0.33
- relative viability (17-AAG + OSI-027; first compound 0.04048 µM): 0.254
- relative viability (17-AAG + OSI-027; first compound 0.128 µM): 0.33
- relative viability (17-AAG + Phenformin; first compound 0.00128 µM): 0.614
- relative viability (17-AAG + Phenformin; first compound 0.004048 µM): 0.369
- relative viability (17-AAG + Phenformin; first compound 0.0128 µM): 0.323
- relative viability (17-AAG + Phenformin; first compound 0.04048 µM): 0.268
- relative viability (17-AAG + Phenformin; first compound 0.128 µM): 0.285
